Common to all, as to assay type: biochemical
One assay concerns the target T1, SmtB (Synechococcus elongatus, UniProt P30340).
T1 construct: 6xHis (C); made in house; host or cells: E. coli Rosetta 2(DE3)pLysS, pET-28c plasmid (pJBL725)
T1 sequence (P30340 with tags, fused parts or gaps): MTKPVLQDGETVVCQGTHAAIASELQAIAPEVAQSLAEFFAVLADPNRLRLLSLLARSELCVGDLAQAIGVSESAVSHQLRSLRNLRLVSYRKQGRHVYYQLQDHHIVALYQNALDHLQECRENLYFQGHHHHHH
Kind of assay: SmtB-regulated in vitro transcription with TMSD fluorescence output. The conditions noted are these: SmtB-regulated reaction, optimized smtO-Hairpin2-InvadeR design. The method, then:
(§1) In addition to TetR, we chose TtgR [44] and SmtB [45] as representative aTFs of the MarR family and SmtB/ArsR family, respectively. We placed the cognate operator sequence of each aTF 2-bp downstream of the T7 promoter and immediately upstream of the InvadeR sequences (FIG. 4a-c). When tetracycline was used to induce TetR-regulated reactions, we observed a strong and robust fluorescent signal visible in ˜10 minutes (FIG. 4d, FIG. 13a). […] We note that we observed a slight decrease in the induction speed from the TtgR-regulated reactions compared to that of the TetR-regulated reactions, likely due to the reduced ttgO DNA template concentration needed to accommodate TtgR's relatively weak binding affinity to its operator sequence.
We were immediately successful in adapting the system to TetR and TtgR (FIG. 4a, b). […]
(§2) Regulated IVT reactions additionally included a purified aTF at the indicated concentration and were equilibrated at 37° C. for ˜10 minutes. Immediately prior to plate reader measurements, 2 ng of T7 RNAP and, optionally, a ligand at the indicated concentration were added to the reaction. Reactions were then characterized on a plate reader as described in Plate reader quantification and micromolar equivalent fluorescein (MEF) standardization.

The next assay addresses T2, TetR (Escherichia coli, UniProt P04483).
T2 construct: made in house; host or cells: E. coli Rosetta 2(DE3)pLysS, pET-28c plasmid (pJBL701)
Description: Next, we sought to determine whether the transcription of InvadeR can be regulated with an aTF, thus creating a ligand-responsive biosensor that uses TMSD outputs. This required us to insert an aTF operator sequence in between the T7 promotor and InvadeR sequence to allow an aTF to regulate transcription. […] To test if this spacing remained important in the TMSD platform, we used TetR as our model aTF to determine the optimum spacing for efficient repression in the presence of TetR and efficient transcription in the absence of TetR [41]. […] However, robust fluorescence signal was observed without TetR when using a 2-bp spacer, which was reduced to nearly baseline levels when regulated by TetR. […]
Using the 2-bp spacer, we next determined whether TetR can be de-repressed with its cognate ligand, anhydrotetracycline (aTc) to allow transcription of InvadeR (FIG. 3c). […]
as §2

Another assay addresses T3, TtgR (Pseudomonas putida, UniProt Q88N29).
T3 construct: made in house; host or cells: E. coli Rosetta 2(DE3)pLysS, pET-28c plasmid (pJBL721)
Briefly: TtgR-regulated in vitro transcription with TMSD fluorescence output. The following applies: TtgR-regulated reactions, with and without ligand. As for the experimental part:
as §1, §2

T3 sequence (Q88N29 other isoform, or with tags, fused parts or gaps): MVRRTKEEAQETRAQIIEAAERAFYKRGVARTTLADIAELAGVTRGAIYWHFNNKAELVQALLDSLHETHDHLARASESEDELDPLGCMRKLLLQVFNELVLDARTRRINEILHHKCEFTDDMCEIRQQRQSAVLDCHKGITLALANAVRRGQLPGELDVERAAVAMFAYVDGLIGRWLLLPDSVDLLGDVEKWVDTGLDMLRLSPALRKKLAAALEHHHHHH

Take `O=S(=O)([O-])[O-].[Zn+2]` [ZnSO4]: the “fluorescence activation by ligand” value on SmtB is given as “clear activation of a SmtB-regulated reaction in the presence of ZnSO4 with low background signal”. Take `Cc1c2c(c(O)c3c(O)cccc13)C(=O)[C@]1(O)C(=O)C(C(N)=O)=C(O)[C@@H](N(C)C)[C@@H]1C2` [aTc, anhydrotetracycline]: the “time until fluorescence is visible” value on TetR (TetR-regulated InvadeR output induced with the ligand (aTc 10 μM)) was about 10 min. Further, the “speed of fluorescence activation relative to the RNA aptamer platform” value at TetR (equimolar amounts of DNA template, TetR and aTc) is “approximately 5 times”. Turning to `O=C1C[C@@H](c2ccc(O)cc2)Oc2cc(O)cc(O)c21` [naringenin], the “fluorescence activation by ligand” value at TtgR was “robust fluorescence activation only in the presence of the ligand”.

The record behind these values is patent US20240141414A1, “CELL-FREE BIOSENSORS WITH DNA STRAND DISPLACEMENT CIRCUITS” (Northwestern University, priority 2021, published 2024).
